Where no end group is shown, it is not given here. [ ]: non-standard residue; d: D form. Nle = CCCC[C@H](N)C(=O)O
How the values were obtained:
Format in all cases: cell-based
[1] = test system: alveolar type II epithelial cells (T2 cells); test: Adhesion of T2 cells to pseudomatrices dissolved in 50% ethanol and air-dried/immobilized, and competitive inhibition by free peptide; conditions: for Adhesion of T2 cells to pseudomatrix compared with coated FN: 0.1-1.0 μg/well, 24 hours serum-free; for Competitive inhibition of cell adhesion by free peptide: 50% ethanol air-dried pseudomatrix, 0.25 mg/ml free AG73 or FIB-1; for Free GRGDSP concentration at which cell adhesion was almost completely inhibited: free peptide 0.25-4.0 mg/ml tested
Procedure: 50 μl of 2-20 μg/ml MAST-GRGDSP (Gly-Arg-Gly-Asp-Ser-Pro) (SEQ ID NO: 22) and MMAC-GRGDSP (SEQ ID NO: 22) dissolved in 50% ethanol were poured into wells, and air-dried/immobilized. Next, the wells to which MAST-GRGDSP (SEQ ID NO: 22) and MMAC-GRGDSP (SEQ ID NO: 22) (0.1-1.0 μg/well) were coated were rinsed with the serum-free DMEM medium. T2 cells suspended in the medium at the concentration of 6×10^4 cells/100 μl were seeded, and cultured in a CO2 incubator at 37° C. for 24 hours. Then, the cells were fixed with methanol, stained, and measured its absorbance according to the method in Example 7. A culture wherein FN was coated as a standard material was conducted simultaneously. The cell adhesion on FN was shown as a standard (100%).
In the same manner as in Example 18, MAST-GRGDSP (SEQ ID NO: 22) was dissolved in 50% ethanol, air-dried/immobilized on wells, and T2 cells were seeded/cultured thereon. Separately, just before the cells were seeded, 0.25-4.0 mg/ml of free GRGDSP (SEQ ID NO: 22) peptide was added to the cell suspension, and the culture and the subsequent measurement of absorbance were conducted in the same manner as described above. […] Further, when the applied amount of MAST-GRGDSP (SEQ ID NO: 22) was decreased, the immobilized amount of GRGDSP (SEQ ID NO: 22) decreased, and the competitive inhibition by free GRGDSP (SEQ ID NO: 22) peptide worked more effectively.
(§1) In the same manner as in Example 18, MMAC-GRGDSP (SEQ ID NO: 22) was dissolved in 50% ethanol, air-dried/immobilized on wells, and T2 cells were seeded/cultured thereon. Separately, just before the cells were seeded, 0.25-4.0 mg/ml of free GRGDSP (SEQ ID NO: 22) peptide was added to the cell suspension, and the culture and the subsequent measurement of absorbance were conducted in the same manner as described above.
as §1, with “MBAC/MAST-AG73 and -FIB-1 were” for “MMAC-GRGDSP (SEQ ID NO: 22) was”, “0.25” for “0.25-4.0”, “AG73 or FIB-1” for “GRGDSP (SEQ ID NO: 22)”

[2] = test system: alveolar type II epithelial cells (T2 cells); test: Adhesion of T2 cells to pseudomatrix adsorbed/immobilized from DMEM and competitive inhibition by free peptides; conditions: for Cell adhesion ability of immobilized pseudomatrix compared with directly coated FN: 1-10 μg/ml in DMEM, 1-day serum-free culture, excluding 1 μg/ml of MBAC-AG73; for Competitive inhibition of cell adhesion to pseudomatrix by free cell adhesion peptide: pseudomatrix 1-10 μg/ml in DMEM
Procedure: 200 mg each of hydrophobic binding-adsorptive polymer, MBAC, MAST or MMAC were dispersed into water, and 1 N NaOH solution was added little by little to dissolve them completely. 50 mg of WSC (1-ethyl-3-(3-dimethylamino propyl)carbodiimide, hydrochloride) was added to the resulting solution, and the reaction was conducted for 2 hours. Subsequently, 20 mg of peptide was added, and the reaction was continued with stirring for 2 hours at room temperature. After the reaction was finished, the reactant was subjected to dialysis with water to remove alkaline and low molecules, and then freeze-dried to prepare a pseudomatrix of interest.
Each pseudomatrix prepared in Example 13 to which cell adhesion peptide was bound (MBAC-peptide) was diluted in DMEM medium to the concentration of 1-10 μg/ml, and the resultant solution was poured into a 96-well by 100 μl each, and left still overnight in a CO2 incubator to be adsorbed and immobilized on the wells. Non-adsorbed MBAC-peptides were removed by rinsing well with DMEM medium. Next, T2 cells suspended at the concentration of 6×10^5 cells/ml were seeded in the serum-free DMEM by 100 μl each. After 1-day serum-free culture, T2 cells were fixed with 100 μl of methanol for 5 minutes, and stained with 50 μl of 0.4% crystal violet for 30 minutes. Excessive staining was washed with water, and the number of adhering cells was counted based on the absorbance of cytoplasm (A595).
In the same manner as in Example 14, each pseudomatrix prepared in Example 13 to which cell adhesion peptide was bound (MAST-peptide) was adsorbed and immobilized on a 96-well, and T2 cells were seeded and cultured thereon.

[3] = test system: alveolar type II epithelial cells (T2 cells); test: Inhibition of T2 cell adhesion by free peptide different from the immobilized peptide substrate
Procedure: Results obtained by adding the free peptides different from the immobilized peptides when T2 cells were cultured on the immobilized peptide prepared according to the method in Example 7, were shown in FIG. 8.
When adding the free peptides that were the same as the immobilized peptides in the culture medium, the both (free and immobilized) peptides compete for syndecan of T2 cells and as a result, the cell adhesion is inhibited (see Example 7). So far, four types of syndecans are genetically known. Whether these syndecans are commonly owned or accommodated by each peptide, overlapping only by some degrees, otherwise mutually exclusive, was examined herein.

[4] = test system: alveolar type II epithelial cells (T2 cells); test: Binding strength (affinity) of immobilized LN peptides to T2 cells relative to immobilized FIB-1 (mixed immobilization, free FIB-1 competition); design: key to Binding strength to T2 cells, Comprehensive evaluation: AA: extremely strongly binding/adhering; A: strongly binding/adhering; B: intermediately binding/adhering (as the same degree as FIB-1 peptide); C: more weakly binding/adhering than FIB-1 peptide
Procedure: Therefore, the amount of FIB-1 peptide was set at 0.25 mg/ml, and AG73 peptide was mixed therewith, while changing its concentration ratio, from 1/1.250 of FIB-1 in an amount which is 0.20 μg/ml, to ½ of FIB-1 in an amount which is 0.125 mg/ml, and the mixture was immobilized on a well wherein a hydrophobic binding-adsorptive polymer MMAC was coated. The amount of cell adhesion in the case where T2 cells were cultured under a serum-free condition for 1 day on the immobilized peptides is shown in FIG. 9, in comparison with the case where the culture was conducted on the immobilized FIB-1, which was set at 100%.
However, in a case that the ratio of FIB-1:AG73 increased to 1:0.02, because T2 cells already transited to be adherent through the immobilized AG73 peptide, free FIB-1 peptide could no longer inhibit the cell adhesion. […] Likewise, with regard to A3G72 and A4G82 peptides, because the mixing ratio at the transitional midpoint=0.1, their binding strength to T2 cells is 10 times as much as that of FIB-1.
The method used in FIGS. 8 and 9 is extremely effective as a convenient method by which a relative order can be measured concerning to the binding strength (affinity) of cell adhesion peptides and the strength of cell adhesion can be considered quantitatively.
In Table 1, the classification is shown based on the results of the affinity (bonding/adhesion strength) between FIB-1 peptide containing RGD amino acid sequence of FN molecule, a binding site to integrin, and T2 cells: laminin α-chain G-domain peptides are classified into class AA, extremely strong binding/adhesion; class A, strong adhesion; class B, adhesion as the same degree as FIB-1; and class C, binding weaker than the described above.

[5] = test system: alveolar type II epithelial cells (T2 cells); test: Inhibition by free cell adhesion peptides of T2 cell adhesion to coated cell adhesion proteins FN, Col I, LN, VN; conditions: free peptide 0.25 mg/ml; serum-free, 1 day
Procedure: Commercially available FN, LN and VN, usually used as cell adhesion proteins at cell culture, were coated to wells at the concentrations of 5 μg/ml, 10 μg/ml and 10 μg/ml, respectively. In case of Col I (collagen type I), Col I at the concentration of 100 μg/ml, dissolved in 1 mM HCl, was poured into a well, left stand still for a while, and then the solution was removed and air-drying was conducted, and rinsed with the medium, before use. Next, 6×10^5 cells/ml of alveolar type II epithelial cells (T2 cells) suspended in the serum-free DMEM medium was seeded by 100 μl each on a 96-well to which the extracellular matrix was coated, and cultured in a CO2 incubator at 37° C. for 1 day. After the culture was finished, the cells were fixed with 100 μl of methanol for 5 minutes, and stained for 30 minutes with 50 μl of 0.4% crystal violet. Excessive staining was washed with water, then the number of cells adhered to FN, Col I, LN and VN, which had been coated to the wells, was counted based on the absorbance of cytoplasm (A595).
On the other hand, among amino acid sequences of various LN molecules, the sequences that induce cell adhesion are known to be present. […] Then, the number of cells was counted in accordance with the method described above.

Substance	Adhesion of T2 cells to pseudomatrix compared with coated FN ([1]; 50% ethanol, air-dried)	Cell adhesion ability of immobilized pseudomatrix compared with directly coated FN [2]	Competitive inhibition of cell adhesion to pseudomatrix by free cell adhesion peptide [2]	also measured
MAST-GRGDSP: pseudomatrix: MAST polymer bound to GRGDSP peptide (also: bound to MAST polymer)	slightly lower than that of the standard cell adhesion protein FN			Amount of cell adhesion compared with the same peptide bound to MMAC ([1]; 50% ethanol, air-dried, polystyrene wells): larger amount of cell adhesion than that of the same peptide bound to MMAC polymer
MAST-AG73: pseudomatrix: MAST polymer reacted with AG73 peptide (RKRLQVQLSIRT)	similarly to the case where FN was coated	the same level of cell adhesion ability as in the case where FN was directly coated	competitively inhibited by the free cell adhesion peptide, the degree is lower than the case of MBAC-peptide	Competitive inhibition of cell adhesion by free peptide [1]: almost completely inhibited
Gly-Arg-Gly-Asp-Ser-Pro (GRGDSP) [reference compound]				Free GRGDSP concentration at which cell adhesion was almost completely inhibited ([1]; adhesion to MAST-GRGDSP): 4.0 mg/mL; Free GRGDSP concentration at which cell adhesion was almost completely inhibited ([1]; adhesion to MMAC-GRGDSP): 1.0 to 4.0 mg/mL
MAST-A3G72: pseudomatrix: MAST polymer reacted with A3G72 peptide (KPRLQFSLDIQT)		the same level of cell adhesion ability as in the case where FN was directly coated	competitively inhibited by the free cell adhesion peptide, the degree is lower than the case of MBAC-peptide	
MBAC-AG73: pseudomatrix: MBAC polymer reacted with AG73 peptide (RKRLQVQLSIRT)	similarly to the case where FN was coated		competitively inhibited	Competitive inhibition of cell adhesion by free peptide [1]: almost completely inhibited
MMAC-GRGDSP: pseudomatrix: MMAC polymer bound to GRGDSP peptide (also: bound to MMAC polymer)	slightly lower than that of the standard cell adhesion protein FN			
MBAC-A3G72: pseudomatrix: MBAC polymer reacted with A3G72 peptide (KPRLQFSLDIQT)			competitively inhibited	
LVLFLNHGHFVA				Inhibition by free peptide of T2 cell adhesion to immobilized AG73 ([3]; AG73 (etc.) immobilized): inhibited the cell adhesion; Inhibition by free peptide of T2 cell adhesion to immobilized FIB-1 ([3]; FIB-1 immobilized): could inhibit; Binding strength to T2 cells, Comprehensive evaluation ([4]; classification relative to FIB-1 peptide): B; Mixing ratio at the transitional midpoint ([4]; peptide:FIB-1 co-immobilized, FIB-1 0.25 mg/ml, loss of inhibition by free FIB-1): about 1; Inhibition of adhesion of T2 cells to FN, Col I, LN and VN by free peptide [5]: inhibited adhesion of T2 cells
MAST-A4G82X: pseudomatrix: MAST polymer reacted with A4G82X peptide (TLFLAHGRLVF[Nle]; also: peptide reacted with MAST polymer (pseudomatrix))		the same level of cell adhesion ability as in the case where FN was directly coated	inhibited by free A4G82 peptide	
